From patent publication US12303497B2, “Anti-androgens for the treatment of metastatic castration-sensitive prostate cancer” (priority 2019, dated 2025)

Tested on: patients with metastatic castration-sensitive prostate cancer (mCSPC)
Settings: Grade ≥3

SMILES: CNC(=O)c1ccc(N2C(=S)N(c3cnc(C#N)c(C(F)(F)F)c3)C(=O)C23CCC3)cc1F [Apalutamide, 4-[7-(6-cyano-5-trifluoromethylpyridin-3-yl)-8-oxo-6-thioxo-5,7-diazaspiro[3.4]oct-5-yl]-2-fluoro-N-methylbenzamide]
- AE leading to discontinuation: Lip swelling: 0 no. (%)
- AE leading to discontinuation: Loss of consciousness: 0 no. (%)
- AE leading to discontinuation: New cancer neoplasm: 5 (1.0) no. (%)
- AE leading to discontinuation: Parkinson's disease: 1 (0.2) no. (%)
- AE leading to discontinuation: Pleural effusion: 0 no. (%)
- AE leading to discontinuation: Pulmonary edema: 0 no. (%)
- AE leading to discontinuation: Pulmonary embolism: 1 (0.2) no. (%)
- AE leading to discontinuation: Radiculopathy: 1 (0.2) no. (%)
- AE leading to discontinuation: Rash (grouped term): 7 (1.3) no. (%)
- AE leading to discontinuation: Respiratory failure: 0 no. (%)
- AE leading to discontinuation: Seizure: 1 (0.2) no. (%)
- AE leading to discontinuation: Subdural hemorrhage: 0 no. (%)
- AE leading to discontinuation: Sudden cardiac death: 1 (0.2) no. (%)
- AE leading to discontinuation: Sudden death: 0 no. (%)
- AE leading to dose interruption: Anxiety: 0 no. (%)
- AE leading to dose interruption: Arthralgia: 0 no. (%)
- AE leading to dose interruption: Aspartate aminotransferase or alanine aminotransferase increased: 4 (0.8) no. (%)
- AE leading to dose interruption: Asthenia: 3 (0.6) no. (%)
- AE leading to dose interruption: Atrial fibrillation: 1 (0.2) no. (%)
- AE leading to dose interruption: Bile duct obstruction: 0 no. (%)
- AE leading to dose interruption: Blood alkaline phosphatase increased: 1 (0.2) no. (%)
- AE leading to dose interruption: Cardiac amyloidosis: 0 no. (%)
- AE leading to dose interruption: Cardiac disorder: 0 no. (%)
- AE leading to dose interruption: Cardiac failure: 0 no. (%)
- AE leading to dose interruption: Cardiac failure congestive: 1 (0.2) no. (%)
- AE leading to dose interruption: Cerebrovascular accident: 1 (0.2) no. (%)
- AE leading to dose interruption: Cheilitis: 0 no. (%)
- AE leading to dose interruption: Chronic hepatitis: 0 no. (%)
- AE leading to dose interruption: Chronic obstructive pulmonary disease: 2 (0.4) no. (%)
- AE leading to dose interruption: Cognitive disorder: 1 (0.2) no. (%)
- AE leading to dose interruption: Confusional state: 1 (0.2) no. (%)
- AE leading to dose interruption: Constipation: 0 no. (%)
- AE leading to dose interruption: Decreased appetite: 1 (0.2) no. (%)
- AE leading to dose interruption: Dehydration: 0 no. (%)
- AE leading to dose interruption: Depression: 0 no. (%)
- AE leading to dose interruption: Diabetes mellitus: 1 (0.2) no. (%)
- AE leading to dose interruption: Diarrhea: 0 no. (%)
- AE leading to dose interruption: Diplegia: 0 no. (%)
- AE leading to dose interruption: Dizziness: 0 no. (%)
- AE leading to dose interruption: Dyspnea: 0 no. (%)
- AE leading to dose interruption: Dysuria: 1 (0.2) no. (%)
- AE leading to dose interruption: Edema: 0 no. (%)
- AE leading to dose interruption: Eyelid edema: 0 no. (%)
- AE leading to dose interruption: Facial edema: 0 no. (%)
- AE leading to dose interruption: Fall: 1 (0.2) no. (%)
- AE leading to dose interruption: Fatigue: 1 (0.2) no. (%)
- AE leading to dose interruption: Febrile neutropenia: 1 (0.2) no. (%)
- AE leading to dose interruption: Gamma-glutamyltransferase increased: 1 (0.2) no. (%)
- AE leading to dose interruption: Gastric ulcer perforation: 1 (0.2) no. (%)
- AE leading to dose interruption: Gastritis: 0 no. (%)
- AE leading to dose interruption: General physical health deterioration: 1 (0.2) no. (%)
- AE leading to dose interruption: Hallucination: 0 no. (%)
- AE leading to dose interruption: Headache: 0 no. (%)
- AE leading to dose interruption: Hematoma: 1 (0.2) no. (%)
- AE leading to dose interruption: Hematuria: 2 (0.4) no. (%)
- AE leading to dose interruption: Hemorrhage intracranial: 1 (0.2) no. (%)
- AE leading to dose interruption: Hemorrhagic erosive gastritis: 1 (0.2) no. (%)
- AE leading to dose interruption: Hepatic cirrhosis: 0 no. (%)
- AE leading to dose interruption: Hepatic failure: 0 no. (%)
- AE leading to dose interruption: Hip fracture: 1 (0.2) no. (%)
- AE leading to dose interruption: Hot flush: 0 no. (%)
- AE leading to dose interruption: Hydronephrosis: 0 no. (%)
- AE leading to dose interruption: Hyperbilirubinemia: 1 (0.2) no. (%)
- AE leading to dose interruption: Hypersensitivity: 0 no. (%)
- AE leading to dose interruption: Hypertension: 6 (1.1) no. (%)
- AE leading to dose interruption: Hypertriglyceridemia: 2 (0.4) no. (%)
- AE leading to dose interruption: Hypokalemia: 1 (0.2) no. (%)
- AE leading to dose interruption: Hyponatremia: 1 (0.2) no. (%)
- AE leading to dose interruption: Infections: 4 (0.8) no. (%)
- AE leading to dose interruption: Influenza-like illness: 0 no. (%)
- AE leading to dose interruption: Insomnia: 0 no. (%)
- AE leading to dose interruption: Ischemic cardiac events: 1 (0.2) no. (%)
- AE leading to dose interruption: Large intestinal ulcer perforation: 1 (0.2) no. (%)
- AE leading to dose interruption: Mental status changes: 0 no. (%)
- AE leading to dose interruption: Muscular weakness: 0 no. (%)
- AE leading to dose interruption: Musculoskeletal stiffness: 0 no. (%)
- AE leading to dose interruption: Nausea: 0 no. (%)
- AE leading to dose interruption: Neutropenia: 2 (0.4) no. (%)
- AE leading to dose interruption: New cancer neoplasm: 1 (0.2) no. (%)
- AE leading to dose interruption: Osteoarthritis: 0 no. (%)
- AE leading to dose interruption: Osteoporosis: 0 no. (%)
- AE leading to dose interruption: Pain (grouped term): 4 (0.8) no. (%)
- AE leading to dose interruption: Pathological fracture: 0 no. (%)
- AE leading to dose interruption: Peripheral edema: 0 no. (%)
- AE leading to dose interruption: Peripheral swelling: 0 no. (%)
- AE leading to dose interruption: Proctalgia: 0 no. (%)
- AE leading to dose interruption: Pyrexia: 0 no. (%)
- AE leading to dose interruption: Rash (grouped term): 20 (3.8) no. (%)
- AE leading to dose interruption: Renal injury: 0 no. (%)
- AE leading to dose interruption: Rheumatoid arthritis: 1 (0.2) no. (%)
- AE leading to dose interruption: Seizure: 0 no. (%)
- AE leading to dose interruption: Spinal cord compression: 1 (0.2) no. (%)
- AE leading to dose interruption: Stomatitis: 0 no. (%)
- AE leading to dose interruption: Subarachnoid hematoma: 1 (0.2) no. (%)
- AE leading to dose interruption: Subarachnoid hemorrhage: 0 no. (%)
- AE leading to dose interruption: Subdural hemorrhage: 0 no. (%)
